Assay results as given in PubChem BioAssay AID248 (DTP/NCI, 2004).
“And” between values parts separate entries of the source, which are not always exact repeats. Equal values may be shown once. Toxic doses and inconclusive results are not listed. No stated cut-off is given here; in the data, active means T/C of 150% or more; inactive means T/C below 125%.

System: L1210 leukemia ip in BDF1 mice, survival T/C
Assay: NCI In Vivo Anticancer Drug Screen. Data for tumor model L1210 Leukemia (intraperitoneal) in B6D2F1 (BDF1) mice
Details: endpoint: mean survival time, higher = longer survival
In short: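 Tumor cells were implanted, animals were treated, and survival was followed. The result divides the treated measurement by the vehicle-control measurement.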

[1] = dose: 100.0 mg/kg/injection, schedule: Q04DX003 (ip), vehicle: saline
[2] = dose: 200.0 mg/kg/injection, schedule: Q04DX003 (ip), vehicle: saline
[3] = dose: 400.0 mg/kg/injection, schedule: Q04DX003 (ip), vehicle: saline
[4] = dose: 25.0 mg/kg/injection, schedule: Q01DX009 (ip), vehicle: saline
[5] = dose: 50.0 mg/kg/injection, schedule: Q01DX009 (ip), vehicle: saline
[6] = dose: 100.0 mg/kg/injection, schedule: Q01DX009 (ip), vehicle: saline
[7] = dose: 50.0 mg/kg/injection, schedule: Q04DX003 (ip), vehicle: Klucel (hydroxypropylcellulose) (HPC)
[8] = dose: 100.0 mg/kg/injection, schedule: Q04DX003 (ip), vehicle: Klucel (hydroxypropylcellulose) (HPC)
[9] = dose: 100.0 mg/kg/injection, schedule: Q01DX001 (ip), vehicle: saline
[10] = dose: 200.0 mg/kg/injection, schedule: Q01DX001 (ip), vehicle: saline
[11] = dose: 400.0 mg/kg/injection, schedule: Q01DX001 (ip), vehicle: saline
[12] = dose: 100.0 mg/kg/injection, schedule: Q01DX001 (ip), vehicle: carboxymethylcellulose (CMC)
[13] = dose: 200.0 mg/kg/injection, schedule: Q01DX001 (ip), vehicle: carboxymethylcellulose (CMC)
[14] = dose: 400.0 mg/kg/injection, schedule: Q01DX001 (ip), vehicle: carboxymethylcellulose (CMC)

Measured: T/C

Nc1ccccc1SC1CC(=O)N(c2ccccc2)C1=O (stereo not given)
inactive: dose: 100.0 mg/kg/injection, schedule: Q01DX009 (ip), vehicle: other 95 % of control | [1] 94 % of control | dose: 200.0 mg/kg/injection, schedule: Q01DX009 (ip), vehicle: other 92 % of control | [2] 89 % of control | dose: 400.0 mg/kg/injection, schedule: Q01DX009 (ip), vehicle: other 92 % of control | [3] 91 % of control

CC1(c2ccccc2)O[C@@H]2C[C@H]3[C@@H]4CCC5=CC(=O)C=C[C@]5(C)[C@@]4(F)[C@@H](O)C[C@]3(C)[C@]2(C(=O)CO)O1 (stereo not given in full)
inactive: dose: 100.0 mg/kg/injection, schedule: Q01DX001 (sc), vehicle: steriod suspending solution 117 % of control | dose: 200.0 mg/kg/injection, schedule: Q01DX001 (sc), vehicle: steriod suspending solution 98 % of control | dose: 400.0 mg/kg/injection, schedule: Q01DX001 (sc), vehicle: steriod suspending solution 107 % of control

O=C(CCNC(=O)c1ccccc1)Oc1ccccc1
inactive: [1] 93 % of control | [2] 95 % of control | [3] 92 % of control

COc1ccc(Cc2nccc3c(OC)c(OC)ccc23)cc1OC
inactive: [4] 98 % of control | dose: 25.0 mg/kg/injection, schedule: Q04DX003 (ip), vehicle: saline 107 % of control | [5] 102 % of control | dose: 50.0 mg/kg/injection, schedule: Q04DX003 (ip), vehicle: saline 93 % of control | [6] 93 % of control | [1] 96 % of control and 103 % of control | [2] 86 % of control

N#CC1(C#N)C2C=CC(C3CC=CC32)C1(C#N)C#N (stereo not given)
inactive: dose: 12.5 mg/kg/injection, schedule: Q01DX009 (ip), vehicle: saline with Tween-80 101 % of control | dose: 25.0 mg/kg/injection, schedule: Q01DX009 (ip), vehicle: saline with Tween-80 97 % of control | dose: 25.0 mg/kg/injection, schedule: Q04DX003 (ip), vehicle: saline with Tween-80 108 % of control | dose: 50.0 mg/kg/injection, schedule: Q04DX003 (ip), vehicle: saline with Tween-80 105 % of control | dose: 100.0 mg/kg/injection, schedule: Q04DX003 (ip), vehicle: saline with Tween-80 93 % of control

CC(C)(C)C(=O)OCN1CCOCC1
inactive: dose: 75.0 mg/kg/injection, schedule: Q01DX001 (ip), vehicle: saline 106 % of control | dose: 150.0 mg/kg/injection, schedule: Q01DX001 (ip), vehicle: saline 103 % of control | dose: 300.0 mg/kg/injection, schedule: Q01DX001 (ip), vehicle: saline 108 % of control

ClC1=C(Cl)C2(Cl)C3C4CC(CC4Cl)C3C1(Cl)C2(Cl)Cl (stereo not given)
inactive: dose: 75.0 mg/kg/injection, schedule: Q01DX001 (ip), vehicle: steriod suspending solution 93 % of control | dose: 150.0 mg/kg/injection, schedule: Q01DX001 (ip), vehicle: steriod suspending solution 90 % of control | dose: 300.0 mg/kg/injection, schedule: Q01DX001 (ip), vehicle: steriod suspending solution 98 % of control

O=C1COc2ccccc2N1
inactive: [7] 96 % of control | dose: 100.0 mg/kg/injection, schedule: Q01DX001 (ip), vehicle: other 103 % of control | [8] 94 % of control | dose: 200.0 mg/kg/injection, schedule: Q01DX001 (ip), vehicle: other 96 % of control | dose: 200.0 mg/kg/injection, schedule: Q04DX003 (ip), vehicle: Klucel (hydroxypropylcellulose) (HPC) 96 % of control

O=C(c1cccc([N+](=O)[O-])c1)c1[nH]c2sc3c(c2c1O)CCCC3
inactive: dose: 6.25 mg/kg/injection, schedule: Q01DX009 (ip), vehicle: Klucel (hydroxypropylcellulose) (HPC) 92 % of control | dose: 12.5 mg/kg/injection, schedule: Q01DX009 (ip), vehicle: Klucel (hydroxypropylcellulose) (HPC) 94 % of control and 91 % of control | dose: 25.0 mg/kg/injection, schedule: Q01DX009 (ip), vehicle: Klucel (hydroxypropylcellulose) (HPC) 89 % of control

COC(=O)CNC(=O)C1NC(C)(C)SC1(C)C (stereo not given)
inactive: [9] 97 % of control | [10] 101 % of control | [11] 95 % of control

CC1(c2cccs2)C(=O)N(Cl)C(=O)N1Cl (stereo not given)
inactive: [4] 110 % of control | [5] 106 % of control | [6] 104 % of control | [1] 96 % of control

O=S1(=O)c2ccccc2-c2ncccc21
inactive: dose: 25.0 mg/kg/injection, schedule: Q01DX001 (ip), vehicle: saline with Tween-80 105 % of control | dose: 50.0 mg/kg/injection, schedule: Q01DX001 (ip), vehicle: saline with Tween-80 109 % of control | dose: 100.0 mg/kg/injection, schedule: Q01DX001 (ip), vehicle: saline with Tween-80 109 % of control

COc1ccc(C(=O)CC(=O)c2ccc(OC)cc2)cc1
inactive: dose: 50.0 mg/kg/injection, schedule: Q01DX001 (ip), vehicle: carboxymethylcellulose (CMC) 92 % of control | [12] 92 % of control | [13] 108 % of control | [14] 94 % of control

OC1C#CCCCCC(O)C#CCCCC1 (stereo not given)
inactive: dose: 18.75 mg/kg/injection, schedule: Q01DX009 (ip), vehicle: saline 97 % of control | dose: 37.5 mg/kg/injection, schedule: Q01DX009 (ip), vehicle: saline 95 % of control | dose: 37.5 mg/kg/injection, schedule: Q04DX003 (ip), vehicle: acetone 100 % of control | dose: 75.0 mg/kg/injection, schedule: Q01DX009 (ip), vehicle: saline 97 % of control | dose: 75.0 mg/kg/injection, schedule: Q04DX003 (ip), vehicle: acetone 97 % of control | dose: 150.0 mg/kg/injection, schedule: Q04DX003 (ip), vehicle: acetone 92 % of control

CC1CCCCN1Cc1ccccc1COC(=O)c1ccc([N+](=O)[O-])cc1Cl (stereo not given)
inactive: dose: 100.0 mg/kg/injection, schedule: Q04DX002 (ip), vehicle: saline with Tween-80 94 % of control | dose: 200.0 mg/kg/injection, schedule: Q04DX002 (ip), vehicle: saline with Tween-80 97 % of control

C=NN1CCOC1=O
inactive: dose: 100.0 mg/kg/injection, schedule: Q04DX002 (ip), vehicle: saline 106 % of control | dose: 200.0 mg/kg/injection, schedule: Q04DX002 (ip), vehicle: saline 91 % of control | dose: 400.0 mg/kg/injection, schedule: Q04DX002 (ip), vehicle: saline 111 % of control

CC(C)c1oc(=O)cc2c1[C@@H](O)[C@H]1OC(=O)[C@@]3(C)[C@@H](O)[C@H]4O[C@H]4[C@@]2(C)[C@@H]13
inactive: dose: 5.0 mg/kg/injection, schedule: Q01DX001 (ip), vehicle: steriod suspending solution 105 % of control | dose: 10.0 mg/kg/injection, schedule: Q01DX001 (ip), vehicle: steriod suspending solution 98 % of control | dose: 20.0 mg/kg/injection, schedule: Q01DX001 (ip), vehicle: steriod suspending solution 110 % of control | dose: 40.0 mg/kg/injection, schedule: Q01DX001 (ip), vehicle: steriod suspending solution 104 % of control

COc1ccc(C)cc1CCCO
inactive: dose: 50.0 mg/kg/injection, schedule: Q01DX001 (ip), vehicle: saline 101 % of control | [9] 101 % of control | [10] 101 % of control | [11] 93 % of control

COc1ccccc1NC(=O)N(O)C1(C#N)CCCCC1
inactive: [12] 94 % of control | [13] 93 % of control | [14] 96 % of control

Cc1cc(O)ccc1SC#N
inactive: dose: 3.12 mg/kg/injection, schedule: Q04DX003 (ip), vehicle: saline + alcohol 97 % of control | dose: 6.25 mg/kg/injection, schedule: Q04DX003 (ip), vehicle: saline + alcohol 101 % of control | dose: 12.5 mg/kg/injection, schedule: Q04DX003 (ip), vehicle: saline + alcohol 101 % of control

Cc1ccc(CC(=S)N2CCOCC2)cc1
inactive: dose: 100.0 mg/kg/injection, schedule: Q01DX001 (ip), vehicle: steriod suspending solution 95 % of control | dose: 200.0 mg/kg/injection, schedule: Q01DX001 (ip), vehicle: steriod suspending solution 98 % of control | dose: 400.0 mg/kg/injection, schedule: Q01DX001 (ip), vehicle: steriod suspending solution 96 % of control

CCN(CC)CCN(CCO)Cc1ccccc1
inactive: dose: 25.0 mg/kg/injection, schedule: Q04DX003 (ip), vehicle: Klucel (hydroxypropylcellulose) (HPC) 98 % of control | dose: 50.0 mg/kg/injection, schedule: Q01DX009 (ip), vehicle: Klucel (hydroxypropylcellulose) (HPC) 92 % of control | [7] 96 % of control | dose: 100.0 mg/kg/injection, schedule: Q01DX009 (ip), vehicle: Klucel (hydroxypropylcellulose) (HPC) 100 % of control | [8] 98 % of control and 101 % of control
